Measurements published in patent US20200188468A1, “A COATED COSTUS COMPOSITION ENRICHED WITH TRITERPENOIDS AND A METHOD OF PREPARATION OF THE SAME” (priority 2017, published 2020).

Columns and labels:
Type in all cases: in vivo, Wistar rats
[1] = tested on: streptozotocin-induced diabetic rats; test: Postprandial glucose levels (OGTT) of costus in various dosages; conditions: STZ diabetic rats, 1 mg/kg oral
Procedure: Adult Wistar rats weighing 200-250 gm were selected at random; the animals were kept in standard animal house conditions at 24±2° C., 65% relative humidity and 12 h light/dark cycle. The animals were acclimatized for a period of five days and fed with standard pellet diet and water. Six healthy rats were separated at random from the lot and diabetes was induced in rest by a single intra-peritoneal injection of streptozotocin (STZ) at 35 mg/kg. Fasting blood sugar (FBS) was measured after seven days of STZ injection and rats having FBS more than 200 mg/dl were considered as diabetic. The diabetic rats were separated out and randomly divided into 11 groups having six rats in each. Six normal healthy rats were allocated to Group I; STZ induced diabetic rats were randomly allocated to Groups 2 to 12.
(§1) Oral glucose tolerance test (OGTT) was performed following a glucose challenge of 2 g/kg by oral gavages. It was to test the ability of body cells to absorb glucose after you ingest a given amount of sugar. Blood glucose was recorded at 30 min, 60 min, 120 min and 180 min, after the glucose challenge on day of the study.
Just after glucose challenge test a specific Doses of Sample-1 (from example 1) and Product-2 (from example 4) were administered through oral gavages. The dosages for Sample-1 and Product-1 were in a range of 25 mg/kg Body wt to 300 mg/kg Body wt. In one of the groups animals were administered with glibenclamide.
Group 2—Positive control—diabetic animals administered with glibenclamide at 1 mg/kg Body wt orally for 30 days.
Group 3—diabetic animals administered with Sample-2 at 25 mg/kg Body wt orally for 30 days.
Group 4—diabetic animals administered with Sample-2 at 50 mg/kg Body wt orally for 30 days.
Group 5—diabetic animals administered with Sample-2 at 75 mg/kg Body wt orally for 30 days.
Group 6—diabetic animals administered with Sample-2 at 100 mg/kg Body wt orally for 30 days.
Group 7—diabetic animals administered with Sample-2 at 150 mg/kg Body wt orally for 30 days.
Group 8—diabetic animals administered with Sample-2 at 300 mg/kg Body wt orally for 30 days.
Group 9—diabetic animals administered with Product-2 at 25 mg/kg Body wt orally for 30 days.
Group 10—diabetic animals administered with Product-2 at 50 mg/kg Body wt orally for 30 days.
Group 11—diabetic animals administered with Product-2 at 75 mg/kg Body wt orally for 30 days.
Group 12—diabetic animals administered with Product-2 at 100 mg/kg Body wt orally for 30 days.
Group 13—diabetic animals administered with Product-2 at 150 mg/kg Body wt orally for 30 days.

[2] = tested on: streptozotocin-induced diabetic rats; test: Fasting blood glucose level, 30 days treatment; conditions: STZ diabetic rats, glibenclamide 1 mg/kg, Samples 1-3 100 mg/kg, Product-1 and -2 50 mg/kg, Product-3 10 mg/kg orally
Procedure: (§2) Adult Wistar rats weighing 200-250 gm were selected at random; the animals were kept in standard animal house conditions at 24±2° C., 65% relative humidity and 12 h light/dark cycle. After five days of acclimatisation, diabetes was induced by injecting streptozotocin 35 mg/kg dissolved in 0.1M citrate buffer of pH 4.5, intraperitoneally, as standardised in our laboratory. Five days after induction of diabetes (day 1 of the study), animals fasted for 12 hours and the fasting blood glucose level (FBG) was estimated for diagnosing diabetic rats. Animals having FBG more than 250 mg/dl were included in the study.
(§3) Six normal healthy rats were allocated to Group I; streptozotocin-induced diabetic rats were randomly allocated to Groups 2 to 9 with 6 rats in each group. The animals were treated for 30 days as per below experimental design:
(§4) Group 3—Positive control—diabetic animals administered with glibenclamide at 1 mg/kg Body wt orally for 30 days.
(§5) Group 4—diabetic animals administered with Sample 1 at 100 mg/kg Body wt orally for 30 days.
(§6) Group 5—diabetic animals administered with Sample 2 at 100 mg/kg Body wt orally for 30 days.
(§7) Group 6—diabetic animals administered with of Sample 3 at 100 mg/kg Body wt orally for 30 days.
(§8) Group 7—diabetic animals administered with Product-1 at 50 mg/kg Body wt orally for 30 days.
(§9) Group 8—diabetic animals administered with Product-2 at 50 mg/kg Body wt orally for 30 days.
(§10) Group 9—diabetic animals administered with of Product-3 at 10 mg/kg Body wt orally for 30 days.
FBG was measured on Day 0, Day 15 and Day 30. OGTT was also performed on Day 0, Day 15 and Day 30.

[3] = tested on: streptozotocin-induced diabetic rats; test: Oral glucose tolerance test on day 1, 15 and 30 of 30 days treatment; conditions: STZ diabetic rats, doses as in E42
Procedure: as §2, §3, §4, §5, §6, §7, §8, §9, §10
as §1, with “30 min (PPG1),” for “30 min,”, “60 min (PPG2),” for “60 min,”, “min (PPG3)” for “min”, “180 min (PPG4),” for “180 min,”, “day 1, day 15 and day 30” for “day”

[4] = tested on: high-fat diet-induced insulin resistance rats; test: High fat diet-induced insulin resistance model (Type 2 diabetes); conditions: HFD rats
Procedure: The study was designed to evaluate the effect of different fractions and compositions of costus on high fat-induced resistance Type-2 diabetic model (HFD). Adult Wistar rats were allowed free access to food and water. They were housed under identical standard conditions. The animals were kept for acclimatisation for a period of 7 days. After 7 days, the animals were randomly divided into six groups of six rats each. The normal control group was treated with normal regular diet and the rest of the animals were fed with high-fat diet for 6 weeks. After 6 weeks, Sample-1, Sample-3, and Product-2 were administered at a specific dosage as per their groups for 6 consecutive weeks. The experimental design was as follows:
as §4
Group 4—diabetic animals administered with Sample-1 at 300 mg/kg Body wt orally for 30 days.
Group 5—diabetic animals administered with Sample-3 at 100 mg/kg Body wt orally for 30 days.
Group 6—diabetic animals administered with of Product-2 at 50 mg/kg Body wt orally for 30 days.
Body weights were determined weekly. At the end of experimental period, blood samples were collected to determine plasma glucose, insulin, glycosylated haemoglobin, triglycerides, and total cholesterol, LDL, HDL and VLDL.

[5] = tested on: streptozotocin and HFD diabetic rats; test: Streptozotocin plus high fat diet Type 2 diabetes model, coated versus uncoated costus extract; conditions: STZ + HFD diabetic rats
Procedure: Wistar rats were selected at random; the animals were kept in standard animal house conditions at 24±2° C., 65% relative humidity and 12 h light/dark cycle. The animals were acclimatized for a period of five days and fed with standard pellet diet and water. Fasted male Wistar rats were intraperitoneally injected with freshly prepared solution of streptozotocin (STZ) (35 mg/kg). After injection, all the animals were continued on the standard rodent diet for 2 weeks. At the end of 2 weeks after STZ injection; 1 ml of blood was collected from retro-orbital plexus of each rat. Blood was allowed to clot for 30 min the serum was separated by centrifuging at 1008 G-force for 20 min at 8.0° C. in a cold centrifuge. The serum separated from the blood of each animal was used for the estimation of glucose. All the samples were analysed calorimetrically in Autoanalyzer (MERCK MICROLAB 300) using commercial kits. The development of hyperglycaemia in these rats was thus confirmed by measuring fasting blood glucose levels. The rats with the fasting PGL of ≥200 mg dl−1 were considered diabetic and selected for further dietary manipulation. 350 g of standard rodent diet was powdered and mixed with 60 g of lard, 45 g of yolk powder, and 45 g of plantation white sugar (HFD diet). The above mixture is pelleted and used to feed the rats for 2 weeks to induce diabetic dyslipidaemia. Required amount of the diet was freshly prepared on a daily basis. At the end of 2nd week the blood was collected from each animal for determination of glucose levels as described above.
After the second fasting blood glucose estimation, at the end of 4th week, the rats were divided into 6 groups of 6 rats each: Group-1 consisted of age-matched non-diabetic normal rats that neither received streptozotocin nor the high-fat diet and served as normal; Group 2 consisted of diabetic rats without any drug treatment and served as untreated control; Group 3 consisted of diabetic rats and received standard drug, Glibenclamide. Group 4 consisted of diabetic rats and received excipients. Group 5 consisted of diabetic rats and sample 2. Group 6 consisted of diabetic rats and product 2. The high fat diet was continued for the rest of the study duration.
Group 3—Diabetic, HFD administered group treated with Glibenclamide at 2.5 mg/Kg p.o. body weight.
Group 5—Diabetic, HFD administered group treated with sample 2 for at 40 mg/kg twice daily.
Group 6—Diabetic, HFD administered group treated with product-2 at 100 mg/kg twice daily.
Body weights were determined biweekly. At the end of experimental period, blood samples were collected to determine plasma glucose, insulin, leptin, glycosylated hemoglobin, triglycerides, total cholesterol, LDL, HDL and VLDL.

[6] = end of experimental period, doses as in E59

COc1ccc(Cl)cc1C(=O)NCCc1ccc(S(=O)(=O)NC(=O)NC2CCCCC2)cc1 [glibenclamide]
Postprandial glucose level 30 min ([1]; 30 min after 2 g/kg glucose): 294 mg/dL | Postprandial glucose level 60 min ([1]; 60 min after 2 g/kg glucose): 170 mg/dL | Postprandial glucose level 120 min ([1]; 120 min after 2 g/kg glucose): 127 mg/dL | Postprandial glucose level 180 min ([1]; 180 min after 2 g/kg glucose): 101 mg/dL | Fasting blood glucose level 0th day ([2]; day 0): 388 mg/dL | Fasting blood glucose level 15th day ([2]; day 15): 266 mg/dL | Fasting blood glucose level 30th day ([2]; day 30): 142 mg/dL | PPG 30 min, Day 1 ([3]; Day 1, 30 min after 2 g/kg glucose): 294 mg/dL | PPG 60 min, Day 1 ([3]; Day 1, 60 min after 2 g/kg glucose): 232 mg/dL | PPG 120 min, Day 1 ([3]; Day 1, 120 min after 2 g/kg glucose): 226 mg/dL | PPG 180 min, Day 1 ([3]; Day 1, 180 min after 2 g/kg glucose): 158 mg/dL | PPG 30 min, Day 15 ([3]; Day 15, 30 min after 2 g/kg glucose): 285 mg/dL | PPG 60 min, Day 15 ([3]; Day 15, 60 min after 2 g/kg glucose): 225 mg/dL | PPG 120 min, Day 15 ([3]; Day 15, 120 min after 2 g/kg glucose): 219 mg/dL | PPG 180 min, Day 15 ([3]; Day 15, 180 min after 2 g/kg glucose): 153 mg/dL | PPG 30 min, Day 30 ([3]; Day 30, 30 min after 2 g/kg glucose): 276 mg/dL | PPG 60 min, Day 30 ([3]; Day 30, 60 min after 2 g/kg glucose): 218 mg/dL | PPG 120 min, Day 30 ([3]; Day 30, 120 min after 2 g/kg glucose): 212 mg/dL | PPG 180 min, Day 30 ([3]; Day 30, 180 min after 2 g/kg glucose): 148 mg/dL | Blood glucose [4, 6]: 142 mg/dL | Glycosylated Hb [4, 6]: 0.5 % of total Hb | HDL [4, 6]: 27 mg/dL | LDL [4, 6]: 55 mg/dL | TC [4, 6]: 91.4 mg/dL | TG [4, 6]: 47 mg/dL | VLDL [4, 6]: 9.4 mg/dL | Insulin ([4]; serum, end of experimental period, doses as in E59): 1.7 ng/mL | Body weight, week 0 ([4]; week 0, glibenclamide 1 mg/kg, Sample-1 300 mg/kg, Sample-3 100 mg/kg, Product-2 50 mg/kg orally): 216 grams | Average Body weight at weekly interval, week 2 ([4]; week 2, doses as in E59): 259 grams | Average Body weight at weekly interval, week 3 ([4]; week 3, doses as in E59): 274 grams | Average Body weight at weekly interval, week 4 ([4]; week 4, doses as in E59): 280 grams | Average Body weight at weekly interval, week 5 ([4]; week 5, doses as in E59): 270 grams | Average Body weight at weekly interval, week 6 ([4]; week 6, doses as in E59): 248 grams | Glycosylated Hb ([5]; after 28 days, doses as in E92): 0.5 % of total Hb | HDL ([5]; after 28 days, doses as in E92): 25 mg/dL | LDL ([5]; after 28 days, doses as in E92): 92 mg/dL | TC ([5]; after 28 days, doses as in E92): 136.4 mg/dL | TG ([5]; after 28 days, doses as in E92): 97 mg/dL | VLDL ([5]; after 28 days, doses as in E92): 19.4 mg/dL | Body weight at biweekly interval, 0 ([5]; interval 0, Glibenclamide 2.5 mg/kg p.o., sample 2 40 mg/kg, product-2 100 mg/kg twice daily): 168 grams | Body weight at biweekly interval, 2 ([5]; interval 2, doses as in E92): 174 grams | Body weight at biweekly interval, 4 ([5]; interval 4, doses as in E92): 180 grams | Body weight at biweekly interval, 6 ([5]; interval 6, doses as in E92): 187 grams | Body weight at biweekly interval, 8 ([5]; interval 8, doses as in E92): 192 grams | Insulin ([5]; serum, after 28 days, doses as in E92): 1.58 ng/mL
